Consider 17 compounds from patent US5118682A, “p-Hydroxy phenone derivatives and the use thereof” (BASF Aktiengesellschaft, priority 1988, dated 1992).

For one experiment, the system named is QT interval. Description: class III antiarrhythmic action in guinea-pigs after intravenous administration (increase in QT interval, ECG). The experiment is classed as in vivo, guinea-pigs (Pirbright white). Particulars: i.v.; for ED20: Cavia porcellus, iv, read-out: Increase in QT interval ED 20%; for Rel. action ED20 (D-sotalol)/ED20 (example): guinea-pigs, potency relative to D-sotalol = 1. The protocol: The experimental animals are male and female Pirbright white guinea-pigs weighing from 300 to 500 g. They are anaesthetized with 1.5 g/kg urethane i.p. The substances are administered intravenously. The ECG conduction times and the heart rate are measured from a recording from extremity lead II. […] The criterion of a class III action is an increase in the QT interval compared with the values before administration of the substance. An increase in PQ and a large decrease in the heart rate serve as exclusion criteria.

For experiment [1], the system named is arrhythmias which are otherwise resistant to therapy, especially reentry arrhythmias. Particulars: Circulation 68 (1983); Am. Heart J. 109 (1985); J. Clin. Pharmacol. 27 (1987); cited from earlier work.
[2] abbreviates: anaesthetized guinea-pigs (urethane 1.5 g/kg i.p.), ECG extremity lead II, 4 to 6 animals per dose, dose for 20% increase in QT interval, calculated from log dose-response.

Structures can show the parent of a compound that is named as a salt.

In the case of `COc1ccccc1CCC(=O)c1cc(C)c(OCCN2CCCCC2)c(C)c1` [Example 27, 3,5-Dimethyl-3'-(2-methoxyphenyl)-4-(2-(piperidinyl)ethoxy)propiophenone fumarate], the ED20 in the experiment on QT interval (setting [2]) was 1.2 mg/kg. In addition, the “Rel. action ED20 (D-sotalol)/ED20 (example)” value (“Rel. action ED20” below) in the experiment on QT interval turned out to be 3. For `Cc1ccccc1/C=C/C(=O)c1cc(C)c(OCCN2CCCC2)c(C)c1` [Example 1, 3',5'-Dimethyl-4,-(2-(1-pyrrolidinyl)ethoxy)-2-methylchalcone tosylate] the same measures were 0.74 mg/kg and 4.9.

Consider `CCN(CC)CCOc1c(C)cc(C(=O)/C=C/c2ccccc2C)cc1C.O=C(O)/C=C/C(=O)O` [Example 3, 4'-(2-Diethylaminoethoxy)-3',5'-dimethyl-2-methylchalcone fumarate], for which, in the experiment on QT interval (setting [2]), the ED20 is 0.65 mg/kg. Besides, the “Rel. action ED20” value with QT interval came out at 5.5. On the same counts, the results for `Cc1ccccc1/C=C/C(=O)c1cc(C)c(OCCN2CCCCC2)c(C)c1.O=C(O)/C=C/C(=O)O` [Example 2, 3',5'-Dimethyl-4'-(2-(1-piperidinyl)ethoxy)-2-methylchalcone fumarate] are 0.76 mg/kg and 4.7. For `COc1ccc(C=CC(=O)c2cc(C)c(OCCN3CCCC3)c(C)c2)c(C)c1` [Example 15, 3',5'-Dimethyl-4'-(2-(1-pyrrolidinyl)ethoxy)-4-methoxy-2-methylchalconeoxalate] the same measures were 1.5 mg/kg and 2.4. On the same counts, the results for `Cc1ccccc1CCC(=O)c1cc(C)c(OCCN2CCCC2)c(C)c1` [Example 25, 3,5-Dimethyl-4-(2-(1-pyrrolidinyl)ethoxy)-3'-(2-tolyl)-propiophenone fumarate] are 0.79 mg/kg and 4.6.

For the compound `CCN(CC)CCOc1c(C)cc(C(=O)Cc2ccc(OC)cc2)cc1C` [Example 10, 4'-(2-Diethylaminoethoxy)-3',5'-dimethyl-4-methoxydeoxybenzoin], the ED20 in the experiment on QT interval (setting [2]) was 1.31 mg/kg. Also, the “Rel. action ED20” value with QT interval was 2.7. Regarding `CC(C)NCC(O)c1ccc(NS(C)(=O)=O)cc1` (single isomer, unassigned) [D-sotalol, reference compound], the ED20 with QT interval (setting [2]) is 3.6 mg/kg. For the same compound, in experiment [1], the “therapeutic advantage of class III antiarrhythmics reported in the literature” value is recorded as “acting against arrhythmias which are otherwise resistant to therapy”.

With `COc1ccc(/C=C/C(=O)c2cc(C)c(OCCN3CCCCC3)c(C)c2)c(C)c1.O=C(O)/C=C/C(=O)O` [Example 20, 3',5'-Dimethyl-4'-(2-(1-piperidinyl)ethoxy)-4-methoxy-2-methylchalcone fumarate], the ED20 in the experiment with QT interval (setting [2]) is 0.73 mg/kg. Besides, in the experiment on QT interval, the “Rel. action ED20” value is on record as 4.9. Regarding “3',4'-Dimethyl-4'-(2-(1-pyrrolidinyl)ethoxy)-4-methoxychalcone fumarate [Example 24]”, in the experiment on QT interval (setting [2]), the “Increase in QT interval ED 20%” value is reported as 0.95 mg/kg. In addition, in the experiment with QT interval, the “Rel. action ED20” value is listed as 3.8.

Take `CCCCc1oc2ccccc2c1C(=O)c1cc(I)c(OCCN(CC)CC)c(I)c1` [amiodarone]: in experiment [1], the “therapeutic advantage of class III antiarrhythmics reported in the literature” value is “acting against arrhythmias which are otherwise resistant to therapy”. Consider `Cc1ccccc1/C=C/C(=O)c1cc(C)c(OCCCN2CCCC2)c(C)c1.O=C(O)/C=C/C(=O)O` [Example 4, 3',5'-Dimethyl-4'-(3-(1-pyrrolidinyl)propoxy)-2-methylchalcon fumarate], for which the ED20 in the experiment on QT interval (setting [2]) is 0.89 mg/kg. In addition, the “Rel. action ED20” value with QT interval was determined as 4.0. On the same counts, the results for `CCc1ccccc1C=CC(=O)c1cc(C)c(OCCN2CCCC2)c(C)c1` [Example 12, 3',5'-Dimethyl-4,-(2-(1-pyrrolidinyl)ethoxy)-2-ethylchalcone fumarate] are 0.74 mg/kg and 4.9. For `CCc1ccccc1CCC(=O)c1cc(C)c(OCCN2CCCCC2)c(C)c1` [Example 32, 3,5-Dimethyl-3'-(2-ethylphenyl)-4-(2-(1-piperidinyl)ethoxy)propiophenone f umarate] the same measures were 1.62 mg/kg and 2.2. On the same counts, the results for `COc1ccccc1/C=C/C(=O)c1cc(C)c(OCCN2CCCC2)c(C)c1.O=C(O)/C=C/C(=O)O` [Example 13, 3',5'-Dimethyl-4'-(2-(1-pyrrolidinyl)ethoxy)-2-methoxychalcone fumarate] are 0.67 mg/kg and 5.4. As to `COc1ccccc1/C=C/C(=O)c1cc(C)c(OCCN2CCCCC2)c(C)c1.Cl` [Example 17, 3',5'-Dimethyl-4'-(2-(1-piperidinyl)ethoxy)-2-methoxychalcone hydrochloride], in the experiment with QT interval (setting [2]), the ED20 was 1.69 mg/kg. In the experiment with QT interval, the “Rel. action ED20” value was determined as 2.1. For the compound `CCc1ccccc1C=CC(=O)c1cc(C)c(OCCN2CCOCC2)c(C)c1` [Example 18, 3',5'-Dimethyl-4'-(2-(1-morpholinyl)ethoxy)-2-ethylchalcone hydrochloride], the ED20 in the experiment with QT interval (setting [2]) was 1.5 mg/kg. Moreover, the “Rel. action ED20” value in the experiment with QT interval is on record as 2.4.
